PubChem BioAssay (NCI)
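Tested at 5 concentrations; 48 h exposure; 96-well plates; endpoints linearly interpolated, else capped at highest concentration. At the TGI there is no net growth.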

Key:
Experiment in all cases: NCI tumour cell line growth inhibition, 48 h
EKVX NSCLC = test system: EKVX NSCLC
ACHN renal = test system: ACHN renal
HT29 colon = test system: HT29 colon
NCI-H226 lung = test system: NCI-H226 lung
SW-620 colon = test system: SW-620 colon
SN12C renal = test system: SN12C renal
CAKI-1 renal = test system: CAKI-1 renal
OVCAR-4 ovarian = test system: OVCAR-4 ovarian
NCI-H522 lung = test system: NCI-H522 lung
MALME-3M melanoma = test system: MALME-3M melanoma
M19-MEL melanoma = test system: M19-MEL melanoma
SF-268 CNS = test system: SF-268 CNS
U251 CNS = test system: U251 CNS
CCRF-CEM leukemia = test system: CCRF-CEM leukemia
HOP-18 NSCLC = test system: HOP-18 NSCLC
HOP-62 NSCLC = test system: HOP-62 NSCLC
OVCAR-8 ovarian = test system: OVCAR-8 ovarian
HOP-92 NSCLC = test system: HOP-92 NSCLC
LXFL 529 NSCLC = test system: LXFL 529 NSCLC
TK-10 renal = test system: TK-10 renal
RXF 393 renal = test system: RXF 393 renal
SK-MEL-2 melanoma = test system: SK-MEL-2 melanoma
KM20L2 colon = test system: KM20L2 colon
NCI-H460 lung = test system: NCI-H460 lung
OVCAR-5 ovarian = test system: OVCAR-5 ovarian
SF-295 CNS = test system: SF-295 CNS
SF-539 CNS = test system: SF-539 CNS
DMS 114 small cell lung = test system: DMS 114 small cell lung
UACC-257 melanoma = test system: UACC-257 melanoma
HL-60(TB) leukemia = test system: HL-60(TB) leukemia
SK-MEL-5 melanoma = test system: SK-MEL-5 melanoma
A549 NSCLC = test system: A549 NSCLC
LOX IMVI melanoma = test system: LOX IMVI melanoma
SNB-19 CNS = test system: SNB-19 CNS
IGROV1 ovarian = test system: IGROV1 ovarian
786-0 renal = test system: 786-0 renal
DMS 273 small cell lung = test system: DMS 273 small cell lung
SNB-78 CNS = test system: SNB-78 CNS
MOLT-4 leukemia = test system: MOLT-4 leukemia
RXF-631 renal = test system: RXF-631 renal
SK-OV-3 ovarian = test system: SK-OV-3 ovarian
DLD-1 colon = test system: DLD-1 colon
COLO 205 colon = test system: COLO 205 colon
UO-31 renal = test system: UO-31 renal
SK-MEL-28 melanoma = test system: SK-MEL-28 melanoma
K-562 leukemia = test system: K-562 leukemia
NCI-H23 lung = test system: NCI-H23 lung
HCT-15 colon = test system: HCT-15 colon
A498 renal = test system: A498 renal
HCT-116 colon = test system: HCT-116 colon
HCC-2998 colon = test system: HCC-2998 colon
M14 melanoma = test system: M14 melanoma
KM12 colon = test system: KM12 colon
SNB-75 CNS = test system: SNB-75 CNS
SR leukemia = test system: SR leukemia
UACC-62 melanoma = test system: UACC-62 melanoma
OVCAR-3 ovarian = test system: OVCAR-3 ovarian
RPMI-8226 leukemia = test system: RPMI-8226 leukemia
XF 498 CNS = test system: XF 498 CNS

Measured: TGI

COC(=O)C(C(=O)C(=O)Nc1ccc([N+](=O)[O-])cc1)c1nc2ccc([N+](=O)[O-])cc2[nH]c1=O (configuration not stated)
not listed: RPMI-8226 leukemia | XF 498 CNS
> 100 µM: all other assays above

Cc1cc(NS(=O)(=O)c2ccc(NC(=O)c3cccc4c(Nc5ccc(S(N)(=O)=O)cc5)c5ccccc5nc34)cc2)no1
not listed: NCI-H226 lung | SW-620 colon | CAKI-1 renal | HOP-18 NSCLC | OVCAR-8 ovarian | HOP-92 NSCLC | KM20L2 colon | SF-295 CNS | SK-MEL-5 melanoma | A549 NSCLC | IGROV1 ovarian | 786-0 renal | DMS 273 small cell lung | COLO 205 colon
> 100 µM: all other assays above
